Measurements from US11052089B2, “Methods for inhibiting alpha-v beta-3 expression on cancer stem cells and inhibiting progression to a cancer stem cell phenotype” (The Regents of the University of California, priority 2014, dated 2021).

How the values were obtained:
Type in all cases: cell-based
[1] = system: ITGB3, Nanog and OCT4 induction; test: mRNA induction of ITGB3, Nanog, OCT4 with GSKJ-4 (FIG. 3, FIG. 11); settings: relative to no serum
Method: (§1) FIG. 3A, FIG. 3B, FIG. 3C and FIG. 3D graphically illustrate data showing that treatment with histone modification inhibitor(s) suppresses the stress induced drug resistant phenotype: FIG. 3A illustrates fold expression mRNA relative to serum after ITGB3 induction of control vehicle, 0.10 μM GSKJ4, and 0.25 μM GSKJ4; FIG. 3B illustrates fold expression mRNA relative to serum after Nanog induction of control vehicle, 0.10 μM GSKJ4, and 0.25 μM GSKJ4; FIG. 3C illustrates nM Erlotinib under conditions comprising serum, no serum and no serum and GSKJ4; and FIG. 3D illustrates fold expression mRNA relative to serum after ITGB3 induction with serum, no serum and no serum and GSKJ4.
FIG. 11A schematically illustrates, and FIG. 11B, FIG. 11C, FIG. 11D and FIG. 11E graphically illustrate that GSKJ-4, which targets histone demethylase JMJD3, suppresses β3 expression as well as pluripotent genes Nanog and OCT4, with the conclusion that GSKJ-4 suppresses ITGB3, Nanog and OCT4 induction by inhibiting JMJD3-targeted H3K27me3 demethylation; and FIG. 11B, FIG. 11C, FIG. 11D and FIG. 11E graphically illustrate fold induction mRNA relative to no serum as a function of GSKJ-4 suppression of ITGB3, Nanog and OCT4 induction, with FIG. 11B, FIG. 11C, FIG. 11D and FIG. 11E illustrating levels of ITGB3, Nanog, OCT4 and SOX2, respectively.

[2] = system: stress induced drug resistant phenotype; test: Stress induced drug resistant phenotype, Erlotinib (FIG. 3C); settings: serum, no serum, no serum and GSKJ4
Method: as §1

[3] = system: lung cancer cells (HCC827); test: 14 day assay for cell surface induction of integrin β3 by nutrient deprivation, cell sorting (FIG. 13, FIG. 14); settings: HCC827, nutrient deprivation (no serum)
[4] = system: ITGB3; test: ITGB3 induction in the presence of HAT inhibitor (FIG. 2)
From the text: FIG. 2 graphically illustrates data showing that ITGB3 induction is suppressed in the presence of histone acetyltransferase (HAT) inhibitor anacardic acid.

[5] = system: integrin β3 expression in HCC827 lung cancer cells; test: Stress induced integrin β3 and stem cell gene expression, gels (FIG. 12); settings: nutrient deprivation (without serum), 0.1 uM
From the text: FIGS. 12A and 12B illustrate data showing the knockdown of P300 histone acetyl transferase (HAT), a known enzyme that targets H3K27ac, in HCC827 lung cancer cells. Histone acetyl transferase (acetyl p300) activity is increased during nutrient deprivation (without serum) leading to integrin β3 expression, which prevents stress-induced expression of integrin β3 and stem cell genes. Increase in histone acetyltransferase (HAT) p300 activity leads to upregulation of integrin β3. Loss of p300 histone acetyltransferase activity prevents the upregulation of integrin β3. Similar to chemical inhibition of HAT activity with anacardic acid at 0.1 uM concentration, a genetic approach was used to knockdown p300 histone acetyl transferase (HAT), a known enzyme that targets H3K27ac prevents expression of integrin β3 and stem cell genes.

Row | Structure (SMILES) | ITGB3 (β3) induction, fold induction mRNA [1] | Nanog induction, fold induction mRNA [1] | OCT4 induction, fold induction mRNA [1] | stress induced drug resistant phenotype [2] | expansion of integrin β3 expressing stem population [3] | formation of the heterodimeric αVβ3 cell surface expression [3] | induction of integrin β3 gene expression [3] | ITGB3 induction [4] | downstream stem cell genes expression [5] | stress induced integrin β3 expression [5]
1 | CCOC(=O)CCNc1cc(N2CCc3ccccc3CC2)nc(-c2ccccn2)n1 [GSKJ4] | suppresses | suppresses | suppresses | suppresses | prevents the expansion | prevents | prevents the induction | – | – | –
2 | C=CC/C=C\C/C=C\CCCCCCCc1cccc(O)c1C(=O)O [anacardic acid, 2-hydroxy-6-[(8Z,11Z)-pentadeca-8,11,14-trienyl]benzoic acid] | – | – | – | – | – | – | – | suppressed | prevents | prevents
